# Reference: patent US20070129436A1, “Agent for Suppressing Body Fat Accumulation” (YAMAHA HATSUDOKI KABUSHIKI KAISHA, priority 2005, published 2007)
# Assays:
# [1] = system: obese model mice fed with a high-fat diet; assay: Effect of astaxanthin monoester on obese model mice fed with a high-fat diet; format: in vivo, male C57BL/6J strain mice
# Description: Astaxanthin was administered to obese model mice fed with a high-fat diet, and the change in body weight, the amount of subcutaneous fat (in the inguinal region and the back), the amount of visceral fat (around the reproductive organs and around the kidney), and the liver weight were examined in the following manner.
# Four week old male C57BL/6J strain mice (SPF) purchased from CHARLES RIVER LABORATORIES JAPAN, INC. were used. The mice were preliminarily fed for 8 days and used for the test after they reached the age of 5 weeks. The mice were divided into three groups of 8 each, that is, a normal diet group, a high-fat diet group, and a high-fat diet+astaxanthin (AX) group, so that the average body weight was equal among the groups.
# During the preliminary feeding period, the mice were given an ordinary powder diet (MF, Oriental Yeast Co., Ltd.), and during the test period of 16 weeks, the mice were given the ordinary powder diet or a high-fat diet having the composition shown in Table 1 below. As to drinking water, the mice were allowed to drink freely sterile distilled water from a water supply bottle.
# The astaxanthin monoester prepared in Preparation Example 1 was dissolved in an olive oil (Wako Pure Chemical Industries, Ltd.) to prepare a solution containing astaxanthin monoester at a concentration of 60 mg/mL. This solution was administered to the high-fat diet+AX group and the olive oil to the other two groups in a volume of 0.05 mL/10 g body weight every day for 16 weeks from the start of the test (at the age of 5 weeks) to the age of 21 weeks, using a probe for oral administration in the mice.
# During the test period, the body weight was measured once a week using a scale. At the end of the test, the body weight was measured, and thereafter, the mice were fasted overnight and sacrificed by collecting blood from the heart. Then, the liver, the adipose tissue in the inguinal region, the adipose tissue around the reproductive organs, the adipose tissue around the kidney, and the adipose tissue in the back were collected and the weights thereof were measured.
# The different types of data obtained were expressed as average values±standard errors for each group. In order to test for statistically significant differences between the high-fat diet group and the high-fat diet+AX group or the normal diet group, a multiple comparison test (ANOVA) was performed using an analysis software (Stat View, Abacus Inc., USA), and a comparison between the groups was performed using Fisher's PLSD multiple comparison test. Differences were considered statistically significant when p<0.05.
# [2] = system: Human umbilical vein endothelial cells (HUVECs); assay: Measurement of 50% lethal concentration for HUVEC (alamarBlue); format: cell-based
# Description: Human umbilical vein endothelial cells (HUVECs) (ATCC CRL-1730) were obtained from American Type Culture Collection and precultivated in an Endothelial Cell Growth Medium (CELL APPLICATIONS, USA) containing 10% bovine fetal serum supplemented with 1% Antibiotic-Antimycotic (GIBCO BRL, USA) under a 5% CO2 atmosphere at 37° C.
# A Matrigel matrix (BD Biosciences, USA) was melted and kept at 4° C. on ice, and then, 50 μL of the matrix were transferred to each well of a 96-well tissue culture plate. The plate was incubated at 37° C. for at least one hour to solidify the matrix solution.
# On the other hand, the astaxanthin monoester obtained in Preparation Example 1 was dissolved in dimethylsulfoxide (DMSO), and then diluted with distilled water to prepare stock test solutions in which the astaxanthin monoester was contained in 40 (v/v) % DMSO at 25000, 2500, 250, 25, and 2.5 μM, respectively. […]
# After the incubation, 20 μL of a 90% alamarBlue reagent were added to individual wells, and incubated for an additional 6 hours. Then, the fluorescence intensity of each well was measured at an excitation wavelength of 530 nm and an emission wavelength of 590 nm using a Spectrafluor Plus plate reader to count the number of living cells. […] The 50% lethal concentration was calculated as the concentration at which the number of living cells was 50% of the number of cells at the start of the experiment.
# [3] = high-fat diet+AX vs high-fat diet group, oral daily for 16 weeks, end of test, FIG. 2
# [4] = high-fat diet+AX vs high-fat diet group, oral daily for 16 weeks, end of test, FIG. 3
substance,measurement,setting,value
astaxanthin monoester,increase in body weight,"[1]; high-fat diet+AX group vs high-fat diet group, oral, 60 mg/mL in olive oil, 0.05 mL/10 g body weight every day for 16 weeks, FIG. 1",tended to be distinctly suppressed
same,amount of fat accumulation in subcutaneous fat (weight),[1]; [3],significantly suppressed
same,amount of fat accumulation in visceral fat (weight),[1]; [3],significantly suppressed
same,proportion of the liver weight to body weight,[1]; [4],approached that in the case of the normal diet
same,proportions of all of the adipose tissues to body weight (increase),[1]; [4],significantly suppressed
same,LC50,"[2]; 72 hours incubation, 250 μM = maximum concentration dissolved in DMSO",≥ 250 µM
same,toxicity,[2]; conclusion from the LC50 for HUVECs,low
